# Tests used:
# KRas^G12R = target: T1, KRas^G12R (Homo sapiens, UniProt P01116, G12R); assay: KRas binding assay (TR-FRET tracer displacement), KRas G12R
# T1 construct: Biotinylated KRas (corresponding to amino acids 1-169, produced at Accelegan Inc.); biotin (biotinylated); purchased Accelegan Inc
# KRas^G12V = target: T2, KRas^G12V (Homo sapiens, UniProt P01116, G12V); assay: KRas binding assay (TR-FRET tracer displacement), KRas G12V
# T2 construct: Biotinylated KRas (corresponding to amino acids 1-169, produced at Accelegan Inc.); biotin (biotinylated); purchased Accelegan Inc
# T2 sequence (P01116 1-169 isoform P01116-2 G12V): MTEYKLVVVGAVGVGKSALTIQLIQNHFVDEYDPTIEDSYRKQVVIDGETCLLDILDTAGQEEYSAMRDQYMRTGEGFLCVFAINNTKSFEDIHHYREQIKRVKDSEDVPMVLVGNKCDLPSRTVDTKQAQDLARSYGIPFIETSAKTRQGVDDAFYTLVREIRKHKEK
# [1] = system: KRas-mediated phosphorylation of ERK in PSN1 cells; assay: Inhibition of KRas-mediated phosphorylation of ERK (Cisbio HTRF pERK), PSN1 cells; assay type: cell-based; details: Homo sapiens
# Experimental: (§1) Inhibition of KRas Phosphorylation of ERK (HTRF) by Exemplary Compounds of Formula (I)
# (§2) Cisbio HTRF Advanced PERK Assay Catalog #64AERPEH
# (§3) Day 1: Seed 6,000 cells/well-25 μl/well in 384-well white solid bottom plate; RPM1_10% FBS. Incubate overnight at 37° C./5% CO2.
# (§4) Incubate for 4 hours at room temperature covered.
# (§5) Read HTRF using ClarioStar
# [2] = system: KRas-mediated phosphorylation of ERK in H727 cells; assay: Inhibition of KRas-mediated phosphorylation of ERK (Cisbio HTRF pERK), H727 cells; assay type: cell-based; details: Homo sapiens, NCI-H727, H727 cells; HTRF pERK
# Method in brief: (§6)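 Following a 3-hr exposure of cells to serially diluted compound (from 10 uM, 3-fold, 10 doses), cold lysis for 40 mins preceded a 2-hr room-temperature HTRF immunoassay for phosphorylated ERK.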
# KRas^G12D = target: T3, KRas^G12D (Homo sapiens, UniProt P01116, G12D); assay: KRas binding assay (TR-FRET tracer displacement), KRas G12D
# T3 construct: Biotinylated KRas (corresponding to amino acids 1-169, produced at Accelegan Inc.); biotin (biotinylated); purchased Accelegan Inc
# T3 sequence (P01116 1-169 isoform P01116-2 G12D): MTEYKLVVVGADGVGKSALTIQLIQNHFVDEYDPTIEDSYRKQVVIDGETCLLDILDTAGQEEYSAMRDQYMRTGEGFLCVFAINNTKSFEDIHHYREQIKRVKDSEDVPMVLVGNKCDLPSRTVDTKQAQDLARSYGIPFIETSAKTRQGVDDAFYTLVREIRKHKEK
# [3] = system: KRas-mediated phosphorylation of ERK in MKN1 cells; assay: Inhibition of KRas-mediated phosphorylation of ERK (Cisbio HTRF pERK), MKN1 cells; assay type: cell-based; details: Homo sapiens, MKN-1
# Experimental: as §1, §2, §3, §4, §5
# [4] = system: KRas-mediated phosphorylation of ERK in AsPC-1 cells; assay: Inhibition of KRas-mediated phosphorylation of ERK (Cisbio HTRF pERK), AsPC-1 cells; assay type: cell-based; details: Homo sapiens, ASPC1, AsPC-1 cells; HTRF pERK
# Method in brief: as §6
# T1 sequence (P01116 1-169 isoform P01116-2 G12R): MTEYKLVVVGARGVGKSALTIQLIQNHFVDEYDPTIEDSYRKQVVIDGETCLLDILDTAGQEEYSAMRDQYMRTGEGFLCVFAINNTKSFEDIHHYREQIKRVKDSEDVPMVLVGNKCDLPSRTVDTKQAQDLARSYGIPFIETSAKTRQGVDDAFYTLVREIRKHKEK
Structure (SMILES),IC50 (KRas^G12R) [nM],IC50 (KRas^G12V) [nM],IC50 [1] [nM],IC50 [2] [nM],IC50 (KRas^G12D) [nM],IC50 [3] [nM],IC50 [4] [nM]
"CCc1c(F)ccc2cc(O)cc(-c3ncc4c(N5CCCC6(CCS6)C5)nc(OC[C@@]56CCCN5C[C@H](F)C6)nc4c3F)c12 (stereo partly drawn) [Example 838, 5-ethyl-6-fluoro-4-(8-fluoro-2-(((2R,7aS)-2-fluorotetrahydro-1H-pyrrolizin-7a(5H)-yl)methoxy)-4-(1-thia-6-azaspiro[3.5]nonan-6-yl)pyrido[4,3-d]pyrimidin-7-yl)naphthalen-2-ol]",15,10,> 10000,1030,16,222,508
"CCc1c(F)ccc2cc(O)cc(-c3ncc4c(N5CCC(N6C(=O)CCC6=O)C5)nc(OC[C@@]56CCCN5C[C@H](F)C6)nc4c3F)c12 (stereo partly drawn) [Example 615, 1′-(7-(8-ethyl-7-fluoro-3-hydroxynaphthalen-1-yl)-8-fluoro-2-(((2R,7aS)-2-fluorotetrahydro-1H-pyrrolizin-7a(5H)-yl)methoxy)pyrido[4,3-d]pyrimidin-4-yl)-[1,3′-bipyrrolidine]-2,5-dione]",421,222,> 10000,> 10000,1990,1530,7210
"CCc1c(F)ccc2cc(O)cc(-c3ncc4c(N5CCC(S(C)(=N)=O)C5)nc(OC[C@@]56CCCN5C[C@H](F)C6)nc4c3F)c12 (stereo partly drawn) [Example 580, 5-ethyl-6-fluoro-4-(8-fluoro-2-(((2R,7aS)-2-fluorohexahydro-1H-pyrrolizin-7a-yl)methoxy) 4-(3-(S-methylsulfonimidoyl)pyrrolidin-1-yl)pyrido[4,3-d]pyrimidin-7-yl)naphthalen-2-ol]",30,81,> 10000,> 10000,296,476,> 10000
"CCc1c(F)ccc2cc(O)cc(-c3ncc4c(N5CCCCC(S(N)(=O)=O)C5)nc(OC[C@@]56CCCN5C[C@H](F)C6)nc4c3F)c12 (stereo partly drawn) [Example 633, 1-(7-(8-ethyl-7-fluoro-3-hydroxynaphthalen-1-yl)-8-fluoro-2-(((2R,7aS)-2-fluorohexahydro-1H-pyrrolizin-7a-yl)methoxy)pyrido[4,3-d]pyrimidin-4-yl)azepane-3-sulfonamide]",6610,2820,> 10000,> 10000,8850,> 10000,> 10000
"CCc1c(F)ccc2cc(O)cc(-c3ncc4c(N5CCC[C@]6(CC[S@+]([O-])C6)C5)nc(OC[C@@]56CCCN5C[C@H](F)C6)nc4c3F)c12 (single isomer, unassigned) [Example 625]",17,10,> 10000,2850,21,195,4740
"CCc1c(F)ccc2cc(O)cc(-c3ncc4c(N5CCC(c6ccc(=O)[nH]n6)C5)nc(OC[C@@]56CCCN5C[C@H](F)C6)nc4c3F)c12 (stereo partly drawn) [Example 608, 6-(1-(7-(8-ethyl-7-fluoro-3-hydroxynaphthalen-1-yl)-8-fluoro-2-(((2R,7aS)-2-fluorotetrahydro-1H-pyrrolizin-7a(5H)-yl)methoxy)pyrido[4,3-d]pyrimidin-4-yl)pyrrolidin-3-yl)pyridazin-3 (2H)-one]",267,88,> 10000,> 10000,1250,> 10000,> 10000
"CCc1c(F)ccc2cc(O)cc(-c3ncc4c(N5CCCC6(CCCCO6)C5)nc(OC[C@@]56CCCN5C[C@H](F)C6)nc4c3F)c12 (stereo partly drawn) [Example 594, 5-ethyl-6-fluoro-4-(8-fluoro-2-(((2R,7aS)-2-fluorotetrahydro-1H-pyrrolizin-7a(5H)-yl)methoxy)-4-(1-oxa-8-azaspiro[5.5]undecan-8-yl)pyrido[4,3-d]pyrimidin-7-yl)naphthalen-2-ol]",53,80,> 10000,2290,91,2350,2810
"CCc1c(F)ccc2cc(O)cc(-c3ncc4c(NCC5(C)CNS(=O)(=O)N5)nc(OC[C@@]56CCCN5C[C@H](F)C6)nc4c3F)c12 (stereo partly drawn) [Example 609, 3-(((7-(8-ethyl-7-fluoro-3-hydroxynaphthalen-1-yl)-8-fluoro-2-(((2R,7aS)-2-fluorohexahydro-1H-pyrrolizin-7a-yl)methoxy)pyrido[4,3-d]pyrimidin-4-yl)amino)methyl)-3-methyl-1,2,5-thiadiazolidine 1,1-dioxide]",< 2,< 2,> 10000,880,< 2,92,1390

# — patent publication US20260015350A1, “AZAQUINAZOLINE PAN-KRAS INHIBITORS” (Mirati Therapeutics, Inc., priority 2022, published 2026)
